Assay [1] concerns the target T1, guinea-pig tracheal strips (LTD4 concentration-response) (Cavia porcellus, UniProt Q2NNR5).
T1 construct: from tissue; host or cells: guinea-pig tracheal strips
T1 sequence (Q2NNR5 1-340): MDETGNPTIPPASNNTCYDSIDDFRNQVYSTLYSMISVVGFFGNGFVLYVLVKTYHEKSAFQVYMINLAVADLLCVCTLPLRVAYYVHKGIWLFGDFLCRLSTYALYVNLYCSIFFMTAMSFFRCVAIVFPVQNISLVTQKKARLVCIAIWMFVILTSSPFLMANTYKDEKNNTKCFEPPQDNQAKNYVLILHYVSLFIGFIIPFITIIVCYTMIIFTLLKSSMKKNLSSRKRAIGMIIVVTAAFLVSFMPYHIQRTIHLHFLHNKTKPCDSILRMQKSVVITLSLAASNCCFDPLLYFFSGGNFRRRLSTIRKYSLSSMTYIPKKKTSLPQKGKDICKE
The assay is described as follows: LTD4 antagonism in guinea-pig tracheal strips (pKB). As to conditions: for Kb: Pharmacological Data table; for pKB value: guinea-pig tracheal strips, negative logarithm of the antagonist dissociation constant. From the text: Leukotrine antagonists may be further characterized using guinea-pig tracheal strips instead of ileum strips (10). In this relevant in vitro model of human airways (11) tracheal strips are suspended in a physiological buffer containing indomethacin. A concentration-response curve to LTD4 is generated in the presence and absence of the leukotriene antagonist. From these curves the potency of a leukotriene antagonist may be expressed as the pKB value, the negative logarithm of the antagonist dissociation constant. The pKB value is determined as -log ([antagonist]/(dose ratio -1)), where the dose ratio is defined as EC50 (pressence of antagonist)/EC50 (absence of antagonist) and EC50 refers to the concentration of LTD4 eliciting 50% of the maximum response to LTD4 (12).

A further assay has as its target T2, LTD4 receptor (Cavia porcellus, UniProt Q2NNR5).
T2 construct: from tissue; host or cells: guinea-pig lung membranes
T2 sequence (Q2NNR5 1-340): T1 sequence (Q2NNR5 1-340)
The assay is described as follows: receptor binding: competition with [^3 H]LTD4 on guinea-pig lung membranes. As to conditions: negative logarithm of molar concentration inhibiting binding by 50%, read-out: pIC50 value ([^3 H]LTD4 binding) (converted). From the text:
It is of importance to investigate the receptor binding properties of leukotriene antagonists in relation to their pKB values (13), i.e. to correlate antagonist receptor blocking with inhibition of smooth muscle contraction. Receptor binding studies may be performed with guinea-pig lung membranes in a direct competition assay between a leukotriene antagonist and [^3 H]LTD4 for binding to the LTD4 receptor (10,13).

The next assay deals with cyclooxygenase. The assay is described as follows: synthesis of cyclooxygenase products in A23187-stimulated rat peritoneal cells. It counts as cell-based. As to conditions: 10^-6 M. On the procedure:
(§1) The following method was used to assay 5-lipoxygenase activity in vitro: Rat peritoneal cells were harvested by i.p. injection of 10 ml Hank's balanced salt solution (GIBCO, cat. No. 4025, U.S.A.) containing 12.5 U/ml sodium heparin (Leo, Denmark) in anaesthesized rats. The resulting cell suspension, which mainly contained macrophages, was transferred to a test tube and washed twice by centrifugation (200 g, 10 min.) and resuspended in Hank's balanced salt solution containing 0.5% bovine serum albumin (BSA) (Sigma Chem. Co., U.S.A.). The cells from 9 rats were finally resuspended in Hank's balanced salt solution (with BSA) containing 5 μCi [1-^14 C]arachidonic acid (The Radiochemical Centre, Amersham, U.K.) and incubated for 90 minutes at 37° C. This caused labelling of cell membrane phospholipids as radioactive arachidonic acid was incorporated in the 2-position of the glycerol moiety. Excess arachidonic acid was then removed by washing the cells twice as described above. The cells were finally resuspended in the same solution (without BSA) at 10^7 cells/ml. 475 μl of the cell suspension was preincubated at 37° C. for 5 minutes with either 5 μl dimethylsulphoxide (DMSO) (control tube), or 5 μl of a drug solution in DMSO. Then 20 μl of a mixture of equal volumes of the calcium ionophore A23187, 10^-4 M in ethanol (Calbiochem, U.S.A.), and 0.4M CaCl2 in water was added. The final concentration of A23187 was thus 2×10^-6 M, and of Ca^++ 8 mM. After 5 minutes of incubation the tubes were transferred to an ice-bath and centrifuged for 10 minutes at 3,000 g (4° C.). An aliquot of the supernatant was counted by liquid scintillation spectrometry in order to calculate the total radioactive release induced by A23187 in presence of drugs. A decrease in radioactive release was taken as indication of phospholipase A2 inhibition. The supernatant was then extracted with ethyl acetate (2 ml), adjusted to pH 3 with 1N HCl and further extracted with 2 ml ethyl acetate. The combined extracts were evaporated to dryness in vacuo, the residue was redissolved in a small volume of methanol and applied by means of a Desaga Autospotter™ to a silica-gel coated thin-layer plate fitted with a polar concentrating zone (Merck Art. 11798, Darmstadt, F.R.G.). The plates were developed in the organic layer of the solvent mixture ethyl acetate/acetic acid/iso-octane/water (55:10:25:50). Radioactive spots were detected by autoradiography (AGFA-GEVAERT, Osray-RPI X-ray film, Belgium), and changes induced by drugs in the metabolic pattern of arachidonic acid were quantified by a laser densitometer (LKB, Ultroscan™ 2202, Bromma, Sweden) in combination with an integrating computer (SP 4100, Spectra-Physics, San Jose, Calif., U.S.A.).
(§2) These cells produced measurable amounts of radioactive 6-keto-prostaglandinF1α, thromboxane B2, prostaglandin D2, hydroxyheptadecatrienoic acid (HHT) (all cyclooxygenase products), 5-hydroxyeicosatetraenoic acid (5-HETE) and leukotriene B4 (both 5-lipoxygenase products).
(§3) At the same time, a decrease in synthesis of the cyclooxygenase products HHT, prostaglandin D2, thromboxane B2 and 6-keto-prostaglandin F1α was not observed. This pattern of drug activity is indicative of truly specific 5-lipoxygenase inhibition.

A further assay has as its system 5-lipoxygenase. The assay is described as follows: 5-lipoxygenase activity in vitro (leukotriene B4 and 5-HETE production in A23187-stimulated rat peritoneal cells). The assay is classed as cell-based. Conditions: 10^-6 M. On the procedure:
as §1, §2, §3

Assay [2] in a line: Pharmacological Data, IC50 (test not stated). As to conditions: Pharmacological Data table.

Molecules are shown by their SMILES. Where only a bound is given, the exact number is not on record here.

In assay [1], `O=C(O)COc1cccc(CNc2cccc(OCc3ccc4ccccc4n3)c2)c1` [Example 1, 3-(2'-Quinolylmethoxy)-N-(3"-carboxymethoxybenzyl)aniline] gave a Kb of 5.01 nM and a pKB value of 8.3. Further, on LTD4 receptor, the IC50 was 50.1 nM.

As for `O=C(O)c1ccccc1NCc1cccc(OCc2ccc3ccccc3n2)c1` [Example 2], the “decrease in synthesis of the cyclooxygenase products HHT, prostaglandin D2, thromboxane B2 and 6-keto-prostaglandin F1α” value (“decrease in synthesis” below) in the assay with cyclooxygenase is “not observed”. Moreover, the “decrease in the production of leukotriene B4 and 5-HETE” value (“decrease in the production” for short) with 5-lipoxygenase is “significant and specific decrease”.

With `O=C(O)Cc1ccc(NCc2cccc(OCc3ccc4ccccc4n3)c2)cc1` [Example 8], the “decrease in synthesis” value in the assay with cyclooxygenase is given as “not observed”. The “decrease in the production” value in the assay on 5-lipoxygenase is “significant and specific decrease”.

As to `O=C(O)COc1ccccc1CNc1cccc(OCc2ccc3ccccc3n2)c1` [Example 9, 3-(2'-quinolylmethoxy)-N-(2"-carboxymethoxybenzyl)aniline], the “decrease in synthesis” value in the assay with cyclooxygenase was “not observed”. Further, the “decrease in the production” value with 5-lipoxygenase is “significant and specific decrease”. Also, the Kb in assay [1] was 0.316 nM. For the same compound, the pKB value in assay [1] is reported as 9.5. Further, the figures for the IC50 (at LTD4 receptor; in assay [2]) were 7.94 nM and 16 nM, respectively.

Turning to `O=C(O)COc1ccc(CNc2cccc(OCc3ccc4ccccc4n3)c2)cc1` [Example 10, 3-(2'-quinolylmethoxy)-N-(4"-carboxymethoxybenzyl)aniline], in assay [1], the Kb is 3.98 nM and the pKB value is reported as 8.4. Further, the IC50 at LTD4 receptor is 31.6 nM.

As for `O=C(O)CCOc1ccccc1CNc1cccc(OCc2ccc3ccccc3n2)c1` [Example 11], the “decrease in synthesis” value with cyclooxygenase is “not observed”. Further, the “decrease in the production” value in the assay on 5-lipoxygenase is “significant and specific decrease”.

For the compound `CC(Oc1ccc(CNc2cccc(OCc3ccc4ccccc4n3)c2)cc1)C(=O)O` (stereo not shown) [Example 12, 3-(2'-quinolylmethoxy)-N-(4"-(1-carboxyethoxy)benzyl)aniline], in the assay on cyclooxygenase, the “decrease in synthesis” value was “not observed”. Also, the “decrease in the production” value with 5-lipoxygenase was “significant and specific decrease”.

Consider `CC(Oc1ccccc1CNc1ccc(OCc2ccc3ccccc3n2)cc1)C(=O)O` (stereo not shown) [Example 13], for which the “decrease in synthesis” value with cyclooxygenase is listed as “not observed”. Besides, in the assay on 5-lipoxygenase, the “decrease in the production” value was “significant and specific decrease”.

For `O=C(O)CCCOc1ccccc1CNc1cccc(OCc2ccc3ccccc3n2)c1` [Example 14, 3-(2'-quinolylmethoxy)-N-(2"-carboxy-(3-propyloxy)benzyl)aniline], the “decrease in synthesis” value with cyclooxygenase is given as “not observed”. Moreover, in the assay on 5-lipoxygenase, the “decrease in the production” value is “significant and specific decrease”.

As to `O=C(O)CCCOc1ccc(CNc2cccc(OCc3ccc4ccccc4n3)c2)cc1` [Example 16], in the assay on cyclooxygenase, the “decrease in synthesis” value is reported as “not observed”. Moreover, in the assay on 5-lipoxygenase, the “decrease in the production” value was “significant and specific decrease”.

Regarding `O=C(NO)c1ccc(CN(Cc2cccc(F)c2)c2cccc(OCc3ccc4ccccc4n3)c2)cc1` [Example 20, 3(2'-Quinolylmethoxy)-N-(3"-fluorobenzyl)-N-(4'"-hydroxaminocarbonylbenzyl)aniline], in the assay on cyclooxygenase, the “decrease in synthesis” value was “not observed”. In the assay with 5-lipoxygenase, the “decrease in the production” value was “significant and specific decrease”.

As to `O=C(NO)c1ccccc1Nc1cccc(OCc2ccc3ccccc3n2)c1` [Example 21, 3-(2'-Quinolylmethoxy)-N-(2"-hydroxaminocarbonylphenyl)-aniline], in the assay on cyclooxygenase, the “decrease in synthesis” value is “not observed”. Besides, the “decrease in the production” value in the assay with 5-lipoxygenase is “significant and specific decrease”.

Take `O=C(O)COc1ccccc1CNc1ccc(OCc2ccc3ccccc3n2)cc1` [Example 22, 4-(2'-Quinolylmethoxy)-N-(2"-carboxymethoxybenzyl)-aniline]: the “decrease in synthesis” value in the assay on cyclooxygenase is recorded as “not observed”. Further, the “decrease in the production” value with 5-lipoxygenase was “significant and specific decrease”.

Consider `c1ccc(CNc2ccc(OCc3ccc4ccccc4n3)cc2)cc1` [example 38], for which, in assay [2], the IC50 turned out to be 900 nM.

`c1ccc(CNc2cccc(OCc3ccc4ccccc4n3)c2)cc1` [example 39, reference compound]: in assay [1], the Kb is 126 nM. Moreover, the IC50 in assay [2] came to 30 nM.

Compound `c1ccc(CNc2ccccc2OCc2ccc3ccccc3n2)cc1` [example 67] showed an IC50 in assay [2] of more than 10000 nM.

Take `O=C(O)CN(Cc1ccccc1)c1cccc(OCc2ccc3ccccc3n2)c1` [ref. I]: the IC50 in assay [2] turned out to be 40 nM.

The Kb is the equilibrium dissociation constant of an antagonist, usually derived from a functional assay. Low values mean higher antagonist affinity, high ones lower antagonist affinity.

The values are drawn from patent US5110819A, “Substituted quinolines and medicinal use thereof” (Leo Pharmaceutical Products Ltd., priority 1987, dated 1992).
